PMC9234963, “Optimizing Shape Complementarity Enables the Discovery of Potent Tricyclic BCL6 Inhibitors” (Journal of Medicinal Chemistry, 2022)
pIC50: −log10 of the molar value. Where “and” joins values, the source holds several entries; their conditions need not be identical. Equal values may be shown once. Read-outs that look alike come from different tables or passages of the source.

Key:
[1] = target: human BCL6 BTB domain (Homo sapiens, UniProt P41182); assay: biochemical; settings: for BCL6 TR-FRET mean pIC50: mean of replicates
Excerpt: 6. Supplementary tables … S-17
Table S1: summary statistics and individual replicate values … S-17 […]
1. Supplementary experimental: protein production, purification and crystallography 1.1 BCL6 constructs used for assays and crystallography
A first construct of BCL6 BTB domain, which we will refer to as Trx-6His-HRV3C-BCL6, was obtained […]
3C protease cleavage site. For the TR-FRET assay, the Trx-6His-HRV3C-BCL6 protein construct was […]
used without cleaving the tag, as a 6His was needed to bind to the anti-6His-Terbium antibody. […]
For both plasmid constructs described above, transformed BL21-AI E. coli cells were grown in LB […]
carried out at 18 °C for 18 hours. Cells were harvested by centrifugation (5500 g for 30 minutes at 4 […]
oC) and stored at -80 °C.
2. Supplementary experimental: biological assay conditions
IC50 values were determined using […]
a sigmoidal four-parameter logistic fit equation.
Individual replicates shown in supplementary

[2] = test system: OCI-Ly3; assay: Cell proliferation assay (14 days, CellTiter Glo), OCI-Ly3; type: cell-based; settings: Homo sapiens, BCL6-low line
Protocol: (§1) After a short centrifugation the plates
(§2) The % inhibition at each test
(§3) 2.3 Cell proliferation assay
(§4) Compounds were initially dispensed into 96- […]
(§5) medium and transferred onto the cells.
(§6) The volume of medium containing 2500 cells in the control well was calculated and this volume of cells was transferred from every well of the assay plates to the corresponding well of the fresh plates containing compound. After 14 days, CellTiter Glo reagent (Promega) was added to the medium in each well of the assay plate at a ratio of 1:2, mixed on a plate shaker, then incubated at room temperature for 10 minutes. Luminescence was measured using an Envision plate reader (Perkin Elmer) and the relative luminescence at each compound concentration, compared to DMSO alone, was calculated. GI50 were determined using a 4-parameter curve fit in Dotmatics (Bishops Stortford, UK).

[3] = test system: OCI-Ly1; assay: Cell proliferation assay (14 days, CellTiter Glo), OCI-Ly1; type: cell-based; settings: Homo sapiens, BCL6-high line
Protocol: as §1, §2, §3, §4, §5, §6

[4] = test system: Karpas 422; assay: Cell proliferation assay (14 days, CellTiter Glo), Karpas 422; type: cell-based; settings: Homo sapiens, KARPAS-422, read-out: Karpas 422 GI50, BCL6-high line
Protocol: as §1, §2, §3, §4, §5, §6

[5] = PAMPA permeability; settings: pH 7.4
[6] = HPLC kinetic solubility assay; type: physicochemical; settings: kinetic solubility by HPLC, 10 mM phosphate-buffered saline pH 7.4, 1% DMSO
Protocol: 3.2 HPLC solubility assay
DMSO. Following shaking of the suspension on a Bohdan Shaker at 500 rpm for 2 hours at room […]
200 µL of the supernatant was transferred to a 2 mL Agilent vial containing 50 µL of DMSO (Sigma […]
detection using an external standard which was prepared by pipetting 10 µL of the same batch of […]
The detail of the HPLC method is as following: chromatographic separation at 30°C is carried out over a 5 minute gradient elution method from 90:10 to 10:90 water:methanol (both modified with 0.1% formic acid) at a flow rate of 1.5 mL/min. Calibration curve is prepared by injecting 0.5, 2.5, and 5 µL of compound external standard.
62.5 µL of compound solubility sample. […]

[7] = cited from earlier work
[8] = read-out: BCL6 TR-FRET IC50, geometric mean of replicates
[9] = read-out: BCL6 TR-FRET IC50 individual replicates, single replicates, 10 nM BCL6 for early examples, else 1 nM

Structure (SMILES) | IC50 ([1]; BCL6 TR-FRET IC50 individual replicates, single replicates, 10 nM BCL6 for early examples, else 1 nM) | BCL6 TR-FRET mean pIC50 [1] | pIC50 ([1]; read-out: BCL6 TR-FRET IC50, Figure 1) | pIC50 [1, 8] | pIC50 [1, 9] | GI50 [2] [µM] | GI50 [3] [µM] | GI50 [4] [µM] | PAMPA Pe (7.4) [5] | Aq. Sol [6] [µM] | passive permeability [7]
Cn1c(=O)c2c(c3cc(Nc4ccnc(Cl)c4C#N)ccc31)N[C@@H](C1CC1)C(F)(F)CO2 [Compound 1, (S)-2-Chloro-4-((2-cyclopropyl-3,3-difluoro-7-methyl-6-oxo-1,2,3,4,6,7-hexahydro-[1,4]oxazepino[2,3-c]quinolin-10-yl)amino)nicotinonitrile] | 2.9 nM (3×) and 2.4 nM and 16.2 nM | 8.40 and 8.41 | 8.40 and 8.41 | 8.41 | 8.41 | 3.4 | 0.17 | 0.19 | – | – | –
Cn1c(=O)cc(NC(C)(C)c2ncc(C3CC3)cn2)c2cc(Nc3ccnc(Cl)c3C#N)ccc21 [Compound 3] | – | 7.58 | – | 7.59 | 7.59 and 7.48 and 7.39 and 7.65 and 7.81 | – | – | 3.32 | 35 × 10^–6 cm s^–1 | 31 | high
